From patent US20060252679A1, “Preventive and/or trerapeutic drgs for itch” (priority 2002, published 2006)

Tests used:
GPR4 = biological target: T1, GPR4 (Homo sapiens, UniProt P46093); test: Antagonistic action on GPR4 (luciferase reporter in GPR4 assay cells); format: cell-based; conditions: 17β-estradiol 10 nmol/L, 6 hours, luciferase luminescence
T1 construct: expressed in transfected cells; host or cells: KJMGER8 (Namalwa KJM-1 human B-cell line stably expressing Gal4-ER), stably co-transfected with pAGal9-GPR4 and the CRE-luciferase reporter pACREpluc
T1 sequence (P46093 whole entry E215Q, the tested form may be a part): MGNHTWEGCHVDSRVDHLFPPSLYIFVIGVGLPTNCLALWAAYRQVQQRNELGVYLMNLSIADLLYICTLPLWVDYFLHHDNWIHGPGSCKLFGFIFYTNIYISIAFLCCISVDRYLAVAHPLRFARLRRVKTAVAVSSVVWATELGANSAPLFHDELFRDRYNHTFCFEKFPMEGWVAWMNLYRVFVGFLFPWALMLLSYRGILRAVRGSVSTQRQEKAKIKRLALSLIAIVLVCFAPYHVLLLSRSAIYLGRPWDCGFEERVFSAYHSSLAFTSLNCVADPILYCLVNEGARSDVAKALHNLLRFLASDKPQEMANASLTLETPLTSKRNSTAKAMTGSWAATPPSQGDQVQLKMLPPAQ
Experimental: Cells for GPR4 assay prepared in Referential Example 5 (said assay cells express GPR4 by stimulation with 17β-estradiol) were seeded on white plates at the rate of 10^5 cells/well, and a solution where 17β-estradiol (manufactured by Sigma) was diluted with a medium so as to make 10 nmol/L in the reaction solution and test compounds were added to the plate and the mixture was incubated at 37° C. for 6 hours in a 5% CO2 incubator. After that, a Steady Glo Luciferase Assay System (manufactured by Promega) solution was added to stop the reaction and the amount of luminescence during one second was measured using a Top Count (Packard, Meriden, Conn., U.S.A.).
Activity of the each of test compounds (antagonistic action) was expressed by an inhibition rate calculated on the basis of counts per second in the presence or absence of 17β-estradiol as shown by the following formula. IC50 value was calculated from the inhibition rate by a linear approximate analysis of the Logit-Log conversion method.
In the formula, A, B and C each have the following meaning, respectively.
A: counts per second when 17β-estradiol and the test compound were added
B: counts per second when neither 17β-estradiol nor the test compound was added
C: counts per second when only 17β-estradiol was added Inhibition Rate (%)=[1−{(A−B)/(C−B)}]×100
2 μl of plasmid pAGal9-GPR4 with inducible expression of GPR4 and 2 μl of reporter plasmid pACREpluc were co-transferred into 6×10^6 cell of KJMGER8 by the above-mentioned electroporation. The transformants were suspended in 8 ml of an RPMI 1640-ITPSG medium and cultured in a CO2 incubator at 37° C. for 24 hours. After the cultivation, blasticidin S ([…]), hygromycin B (300 μg/ml) and geneticin ([…]) were added and cultivation was carried out for 14 days more, and stable transformants (called GPR4 assay cells) were obtained. The transformants were subcultured in an RPMI 1640-ITPSG medium containing blasticidin S (2.0 μg/ml), hygromycin B (300 μg/ml) and geneticin ([…]).

Itching Induced by SPC = test: Suppressive effect on itching induced by SPC (scratching behavior in mice); format: in vivo, ddY male mice; conditions: 300 mg/kg orally one hour before SPC (50 μg/site s.c.), counted for 60 minutes, ten mice per group
Experimental: SPC (50 μg/site) was subcutaneously administered (an SPC-administered group) to the rostal back of ddY male mice (3 to 4 weeks age), the mice were placed in a cage made of acrylic for the observation (7.5×7.5×15 cm) and behavior of the mice was taken by a video camera for 60 minutes in the absence of observing persons. The video camera was subjected to a playback and numbers of scratching behavior by hind limb were counted by visual observation. In a negative control group (a group to which a physiological saline was administered), a physiological saline (0.1 mL/site) was administered instead of SPC. In the compound-administered group, each compound 1 and compound 3 (300 mg/kg) was suspended in a 0.5 w/v % aqueous solution of methyl cellulose (MC) and orally administered at one hour before administration of SPC. In each of the SPC-administered group and the physiological saline-administered group, a 0.5 w/v % aqueous solution of MC (10 mL/kg) was orally administered at one hour before administration of SPC and physiological saline, respectively. The test was conducted for ten mice per group. Suppressive rate by the compounds for scratching behavior induced by SPC was calculated by the following formula. In the formula, A and B have the following meanings, respectively. […]

[1] = system: Itching Induced by Compound 48/80; test: Effect on itching induced by Compound 48/80 (scratching behavior in mice); format: in vivo, ddY strain mice; conditions: 300 mg/kg orally one hour before Compound 48/80 (10 μg/site s.c.); for Numbers of Scratching Behavior (numbers/60 min): ten mice per group; for Suppressive rate(%) of scratching behavior induced by Compound 48/80: versus Compound 48/80-administered group
Experimental: Compound 48/80 (10 μg/site) was subcutaneously administered (a Compound 48/80-administered group) to the rostal back of ddY strain mice (4 weeks age), the mice were placed in a cage made of acrylic for the observation (7.5×7.5×15 cm) and behavior of the mice was taken by a video camera for 60 minutes in the absence of observing persons. The video camera was subjected to a playback and numbers of scratching behavior by hind limb were counted by visual observation. In a negative control group (a group to which a physiological saline was administered), a physiological saline (0.1 mL/site) was administered instead of Compound 48/80. In the compound-administered group, each compound 1 and compound 3 (300 mg/kg) was suspended in a 0.5 w/v % aqueous solution of methyl cellulose (MC) and orally administered at one hour before administration of Compound 48/80. In each of the Compound 48/80-administered group and the physiological saline-administered group, a 0.5 w/v % aqueous solution of MC was orally administered at one hour before administration of Compound 48/80 and physiological saline, respectively. The test was conducted for ten mice per group. Suppressive rate by the compound for scratching behavior induced by Compound 48/80 was calculated by the following formula.
In the formula, C and D have the following meanings.
C: numbers of scratching behavior of the Compound 48/80-administered group
D: numbers of scratching behavior of the compound-administered group Suppressive Rate (%)=[(C−D)/C]×100

[2] = system: Itching in Chronic Dermatitis Model to which Hapten was Repeatedly Applied; test: Effect on itching in chronic dermatitis model to which hapten (oxazolone) was repeatedly applied; format: in vivo, BALB/c male mice; conditions: mean ± standard error, control group 264 ± 29
Experimental: Preparation of chronic dermatitis model to which hapten was repeatedly applied was conducted according to the method by Kitagaki, et al. [Journal of Investigative Dermatology, volume 105, pages 749-755 (1995)] with some modifications.
With regard to hapten, oxazolone (manufactured by Sigma-Aldrich) was used and dissolved in acetone (manufactured by Kanto Kagaku) to prepare a 0.5 w/v % solution of oxazolone in acetone (antigen solution). The antigen solution (10 μL) was applied to the rostal back of BALB/c male mice (6 weeks age) with the hair was shaved to sensitize the mice. Starting from 7 days thereafter (day 0), the antigen solution (10 μL) was repeatedly challenged to apply at the same site until day 16 every two or three days to prepare chronic dermatitis models.
Compound 1 was suspended in a 0.5 w/v % aqueous solution of MC in a concentration of 10 and 30 mg/mL, respectively, and orally administered at a dose of 10 mL/kg at 1 hour before application of the antigen solution on the day 16. As a control group, a group to which only 0.5 w/v % aqueous solution of MC was similarly administered per os was prepared. […]
In order to adjust the mice to new environment, they were allowed to place for one hour in a cage (7.5×8×15 cm) made of acrylic for observation. […] The numbers of scraching behavior by hind limb to the applied site and around there were counted.

SMILES | IC50 (GPR4) [nM] | Numbers of scratching behavior of the compound-administered group (Itching Induced by SPC) | Numbers of Scratching Behavior (numbers/60 min) [1] [numbers/60 min] | Suppressive rate(%) of scratching behavior induced by Compound 48/80 [1] [%] | Numbers of Scratching Behavior for 1 Hour after Application of Hapten ([2]; 100 mg/kg orally 1 hour before antigen application on day 16) | Numbers of Scratching Behavior for 1 Hour after Application of Hapten ([2]; 300 mg/kg orally 1 hour before antigen application on day 16)
CCc1nc2c(C)cc(C)nc2n1Cc1ccc2c(c1)CCc1cc(CN3CC=CCC3)ccc1N2 [Compound 2, 2-(2-Ethyl-5,7-dimethyl-3H-imidazo[4,5-b]pyridin-3-ylmethyl)-8-(1,2,5,6-tetrahydropyridin-1-ylmethyl)-10,11-dihydro-5H-dibenz[b,f]azepine] | 3.2 |  |  |  |  | 
CCc1nc2c(C)cc(C)nc2n1Cc1ccc2c(c1)CCc1cc(CN3CCCC3)ccc1N2 [Compound 3, 2-(2-Ethyl-5,7-dimethyl-3H-imidazo[4,5-b]pyridin-3-ylmethyl)-8-(pyrrolidin-1-ylmethyl)-10,11-dihydro-5H-dibenz[b,f]azepine] | 2.3 | 18 | 26 | 52 |  | 
CCc1nc2c(C)cc(C)nc2n1Cc1ccc2c(c1)CCc1cc(CN3CCN(C)CC3)ccc1N2 [Compound 1, 2-(2-Ethyl-5,7-dimethyl-3H-imidazo[4,5-b]pyridin-3-ylmethyl)-8-(4-methylpiperazin-1-ylmethyl)-10,11-dihydro-5H-dibenz[b,f]azepine] | 4 | 13 | 16 | 54 | 138 ± 33 | 2 ± 1
CCc1nc2c(C)cc(C)nc2n1Cc1ccc2c(c1)CCc1cc(CN3CC(C)CC(C)C3)ccc1N2 (stereo not shown) [Compound 5] | 14 |  |  |  |  | 
CCc1nc2c(C)cc(C)nc2n1Cc1ccc2c(c1)CCc1cc(CN3CCOCC3)ccc1N2 [Compound 4, 2-(2-Ethyl-5,7-dimethyl-3H-imidazo[4,5-b]pyridin-3-ylmethyl)-8-morpholinomethyl-10,11-dihydro-5H-dibenz[b,f]azepine] | 5.8 |  |  |  |  | 
